In PMC11068671, “New-generation biofilm effective antimicrobial peptides and a real-time anti-biofilm activity assay: CoMIC” (Applied Microbiology and Biotechnology, 2024):
Values after ≈ are worked out from the molar mass of the structure shown. Non-standard residues stand in square brackets, D forms with d. Residues, ends and D or L forms follow the SMILES beside them. No end group written: not given here.

Legend:
MRSA biofilm [1] = assay: Antibiofilm activity, conventional crystal violet (CV) method; type: cell-based, Methicillin-resistant S. aureus
Description: There was 90 µL of 10^6 CFU/mL MRSA in MHB media with fructose transferred into wells. Then, 10 µL of 1:2 serial dilutions of the antimicrobial peptides (1280–0 µg/mL) was added in wells. So that, final concentrations of peptides were 128–0 µg/mL. Plates were incubated at 37°C overnight. After overnight incubation, they were analyzed with conventional CV method. For this purpose, the bacterial cultures were removed, and wells were washed with distilled water. 200 µl of 1% CV dye was added to each well and incubated at room temperature for 15 min in the dark. Then, CV dye was removed, and wells were washed with water. After dried the plate in an oven at 45–50°C, 33% acetic acid was added into wells to dissolve the dye and wells were spectrophotometrically read by Varioscan (Thermo, USA) at 590 nm (Stepanović et al. [2000]). Biofilm inhibiton rates (%) were calculated by the following formula (Liu et al. [2021]): (1-A590ofwellstreatedwithpeptides/[…])×100
Before this calculation, the values obtained from all wells were subtracted from the value from the empty wells (Blank).

Proteinase K = Proteinase K (Parengyodontium album, UniProt P06873); assay: Protease resistance, Proteinase K treatment with HPLC analysis; type: in vitro ADME; conditions: analytical HPLC
Description: Proteinase K was used for testing the resistance of the designed peptides to proteases, since Proteinase K, a serine protease with broad-spectrum cleavage activity that preferentially cleaves aliphatic and aromatic amino acid residues, is widely used in the literature to determine the protease resistance of antimicrobial peptides (Lucio et al. [2017], Wang et al. [2019]). Afterwards, HPLC characterization was performed to understand the effect of Proteinase K on peptides.

MRSA = type: cell-based, Methicillin-Resistant S. aureus
Description: (§1) NET1, NET2, NET3, and NET4 peptide antibiotics were used in the experiments. For the purpose of the study, both clinical isolates Methicillin-Resistant S. aureus (MRSA), Vancomycin-resistant Enterococcus (VRE), E. coli ER2566, E. coli 13846 bacteria and ATCC strains S. aureus and E. coli bacteria were used in the MIC study. All strains used in this study have been deposited in a strain collection of the Research Laboratory of Acibadem Mehmet Ali Aydinlar University. For experiment 0.5 McFarland bacterial suspension was prepared in Müeller Hinton Broth (MHB) media. In the 96-well plate, serial dilutions of peptide antibiotics starting from 512 to 0 μg/mL were made in MHB media and added 5 µl of bacterial suspensions. After incubated overnight at 37°C, results were evaluated according to turbidity (Teh et al. [2017]). Ampicillin was used as positive controls.

erythrocytes = type: cell-based
Description: Hemolytic activity assays were carried out using erythrocytes, using triton X-100 as lysis control agent. Hemolytic activities were analyzed by reading each well with a plate reader spectrophotometer device at 414 nm and the % lysis rate was calculated in Microsoft Excel according to the following formula (Eren et al. [2008]). Lysis%=[OD414-OD414blank]/[OD414totallysis-OD414blank]×100

MRSA biofilm [2] = assay: Antibiofilm activity, CoMIC method; type: cell-based, Methicillin-resistant S. aureus; conditions: peptides added just before the start of biofilm formation
Description: Ninety microliters of 0.5 McF Methicillin-resistant S. aureus (MRSA) (1.5×10^8 CFU/mL) in Congo Red Broth media with fructose was transferred into wells. Plates were incubated at 37°C. At the time just before the start of biofilm formation as optimized in Fig. 4, 10 µL of 1:2 serial dilutions of the antimicrobial peptides (2560–0 µg/mL) was added in wells. So that, final concentrations of peptides were 256–0 µg/mL. Incubation of media continued overnight. Then, wells were evaluated according to their black color formation.

E. coli = assay: SEM of cell membrane integrity; type: cell-based; conditions: 16 µg/mL peptide, 10^5 CFU/mL, 37°C, 4–5 h
Description: The effect of NET1 peptides on the integrity of E. coli cell membranes was shown by SEM (Wang et al. [2018]). […] Peptide molecules were mixed with 10^5 CFU/mL of E. coli and incubated at 37°C for 4–5 h. […] After incubation, 20 µL of the mixture containing peptide antibiotics and bacteria was applied to a dialysis membrane. Then, it was fixed and imaged by the SEM microscope. As a negative control, bacteria which was not treated with peptide molecules were also used.

VRE = type: cell-based, Vancomycin-resistant Enterococcus
Description: as §1

HaCaT cell line = assay: in vitro; type: cell-based
Description: (§2) MTT Cell Proliferation Kit (Sigma), a colorimetric method, was used for this test to evaluate the damage that peptides can cause in eukaryotic cells and all cell lines used in this study have been deposited in a collection of the Research Laboratory of Acibadem Mehmet Ali Aydinlar University. The cell lines of 3T3 (ATCC CRL-1658) and HaCaT (ATCC PCS-200-011) were revived under appropriate culture conditions and made ready for the experiment. The final concentration of peptides reached 64 to 0.5 μg/mL. Samples were worked in triplicates for each concentration. Cells incubated without peptide-treatment under the same conditions were used as a control. Magainin II, a known natural AMP that has no cytotoxic effects, was used as a positive control (Bacalum and Radu [2015]). The results were analyzed by reading them with a 96-well plate reader at 550 and 690 nm.

3T3 cell line = assay: in vitro; type: cell-based
Description: as §2

in vitro = type: cell-based
Description: as §2

E. coli NTCC13846 = type: cell-based
Description: as §1

E. coli ER2566 = type: cell-based
Description: as §1

S. aureus ATCC29213 = type: cell-based
Description: as §1

E. coli ATCC25922 = type: cell-based
Description: as §1

S. aureus ATCC25923 = type: cell-based
Description: as §1

Staphylococcus aureus = test system: Staphylococcus aureus; design: method as in Dean et al. [2011]; conditions: ref Dean et al. [2011]; cited from earlier work

Chain of Proteinase K (P06873 106-384): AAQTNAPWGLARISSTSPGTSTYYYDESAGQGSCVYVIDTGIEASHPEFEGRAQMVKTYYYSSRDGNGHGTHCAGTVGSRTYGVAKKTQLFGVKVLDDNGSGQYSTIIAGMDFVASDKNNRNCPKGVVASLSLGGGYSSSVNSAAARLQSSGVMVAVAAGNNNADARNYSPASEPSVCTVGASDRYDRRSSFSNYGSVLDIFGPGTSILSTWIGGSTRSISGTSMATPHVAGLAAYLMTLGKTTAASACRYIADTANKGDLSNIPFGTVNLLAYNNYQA

Molecule	concentration that provided over 50% biofilm inhibition (MRSA biofilm [1]; CV method)	Peptide concentration inhibiting the biofilm at 100%, Crystal Violet (MRSA biofilm [1]; peptides added at the very beginning of culture)	resistance to proteases (HPLC after proteinase K treatment) (Proteinase K)	MIC (MRSA)	HC50 value as times the MIC value (erythrocytes)	therapeutic index for hemolytic activities (erythrocytes)	Peptide concentration inhibiting the biofilm at 100%, CoMIC (MRSA biofilm [2])	effect on E. coli cells seen by SEM (E. coli)	MIC (VRE)	IC50 value as times the MIC value (HaCaT cell line)	therapeutic index for cytotoxic activities (HaCaT cell line)	therapeutic index for cytotoxic activities (3T3 cell line)	IC50 (in vitro; human)	IC50 (in vitro; mouse)	MIC (E. coli NTCC13846)	MIC (E. coli ER2566)	MIC (S. aureus ATCC29213)	MIC (E. coli ATCC25922)	MIC (S. aureus ATCC25923)	activity of the D-form, times lower than L-form (Staphylococcus aureus)
CC(C)C[C@@H](NC(=O)[C@H](CCCNC(=N)N)NC(=O)[C@@H](CC(C)C)NC(=O)[C@@H](CC(C)C)NC(=O)[C@@H](CC(C)C)NC(=O)[C@@H](N)CCCNC(=N)N)C(=O)N[C@H](CC(C)C)C(=O)N[C@@H](CCCNC(=N)N)C(=O)N[C@@H](CCCNC(=N)N)C(=O)N[C@H](CC(C)C)C(=O)N[C@H](CC(C)C)C(=O)N[C@@H](CCCNC(=N)N)C(=O)N[C@H](CC(C)C)C(=O)N[C@H](CC(C)C)C(=O)N[C@H](CC(C)C)C(=O)N[C@@H](CCCNC(=N)N)C(N)=O [NET1, RLLLRLLRRLLRLLLR-NH2] (H-R[dL][dL][dL]R[dL][dL]RR[dL][dL]R[dL][dL][dL]R-NH2; N-terminus assumed)	2 µg/mL	4 µg/mL	not fractionated by proteases	2 µg/mL (≈ 0.959 µM)	16–32 times	32	64 µg/mL	lethal to E. coli	0.5 µg/mL (≈ 0.24 µM)	16-32 times	32	16	64 µg/mL (≈ 30.7 µM)	32 µg/mL (≈ 15.3 µM)	4 µg/mL (≈ 1.92 µM)	<0.25 µg/mL	2 µg/mL (≈ 0.959 µM)	2 µg/mL (≈ 0.959 µM)	4 µg/mL (≈ 1.92 µM)	–
LL-37: LL-37 peptide, only D-form compared with only L-form in a cited study (LLGDFFRKSKEKIGKEFKRIVQRIKDFLRNLVPRTES; not fully specified; also: all-D and all-L forms; UniProt P49913 134-170, looked up)	–	–	–	–	–	–	–	–	–	–	–	–	–	–	–	–	–	–	–	10 times
